Where two headings read alike, the source gives them in different places.
Assays:
[1] = test system: S. aureus ATCC strains and MRSA; type: cell-based, Staphylococcus aureus
[2] = test system: Coagulase negative Staphylococcus; experiment: Antibiotic susceptibility of coagulase negative Staphylococcus strains; type: cell-based
[3] = test system: Staphylococcus hominis; type: cell-based; as to FOX screen: key: POS: cefoxitin-screen positive (resistant to cefoxitin)
Description: (§1) It was also tested whether compounds #63 and #285 can inhibit other coagulase-negative Staphylococcus (CNS) including S. epidermidis, S. hominis, etc. […].

[4] = test system: Staphylococcus epidermidis; type: cell-based; as to FOX screen: key: POS: cefoxitin-screen positive (resistant to cefoxitin)
Description: as §1

[5] = CNS1 (Coagulase negative Staphylococcus)
[6] = CNS2 (Coagulase negative Staphylococcus)
[7] = Se1 (Staphylococcus epidermidis)
[8] = Se2 (Staphylococcus epidermidis)
[9] = Se3 (Staphylococcus epidermidis)
[10] = Se4 (Staphylococcus epidermidis)
[11] = Se5 (Staphylococcus epidermidis)

## C[C@H]1c2cccc(O)c2C(=O)C2=C(O)[C@]3(O)C(=O)C(C(N)=O)=C(O)[C@@H](N(C)C)[C@@H]3[C@@H](O)[C@@H]21 [DOX, doxycycline]
[1]; S. aureus ATCC 25923
  Antibiotic susceptibility: S
[1]; S. aureus ATCC 29213
  Antibiotic susceptibility: S
[1]; S. aureus ATCC BAA 976
  Antibiotic susceptibility: S
[1]; S. aureus ATCC BAA 977
  Antibiotic susceptibility: S
[1]; S. aureus ATCC BAA 1026
  Antibiotic susceptibility: S
[1]; Sa1 (MRSA)
  Antibiotic susceptibility: S
[1]; Sa2 (MRSA)
  Antibiotic susceptibility: S
[1]; Sa3 (MRSA)
  Antibiotic susceptibility: S
[1]; Sa6 (MRSA)
  Antibiotic susceptibility: S
[1]; Sa7 (MRSA)
  Antibiotic susceptibility: S
[1]; Sa9 (MRSA)
  Antibiotic susceptibility: S
[1]; Sa11 (MRSA)
  Antibiotic susceptibility: S
[1]; Sa12 (MRSA)
  Antibiotic susceptibility: S
[1]; Sa14 (MRSA)
  Antibiotic susceptibility: S
[1]; Sa15 (MRSA)
  Antibiotic susceptibility: S
[1]; Sa16 (MRSA)
  Antibiotic susceptibility: S
[1]; Sa17 (MRSA)
  Antibiotic susceptibility: S
[1]; Sa18 (MRSA)
  Antibiotic susceptibility: S
[1]; Sa19 (MRSA)
  Antibiotic susceptibility: S
[1]; Sa20 (MRSA)
  Antibiotic susceptibility: S
[1]; Sa21 (MRSA)
  Antibiotic susceptibility: S
[1]; Sa22 (MRSA)
  Antibiotic susceptibility: S
[1]; Sa23 (MRSA)
  Antibiotic susceptibility: S
[2]; [5]
  Antibiotic susceptibility: S
[2]; [6]
  Antibiotic susceptibility: S
[3]; Sh1 (Staphylococcus hominis)
  Antibiotic susceptibility: S
[3]; Sh2 (Staphylococcus hominis)
  Antibiotic susceptibility: R
[3]; Sh3 (Staphylococcus hominis)
  Antibiotic susceptibility: S
[4]; [7]
  Antibiotic susceptibility: S
[4]; [8]
  Antibiotic susceptibility: S
[4]; [9]
  Antibiotic susceptibility: S
[4]; [10]
  Antibiotic susceptibility: S
[4]; [11]
  Antibiotic susceptibility: S

## CO[C@@]1(NC(=O)Cc2cccs2)C(=O)N2C(C(=O)O)=C(COC(N)=O)CS[C@@H]21 [FOX, Cefoxitin]
[1]; S. aureus ATCC 25923
  FOX screen: Neg
[1]; S. aureus ATCC 29213
  FOX screen: Neg
[1]; S. aureus ATCC BAA 976
  FOX screen: POS
[1]; S. aureus ATCC BAA 977
  FOX screen: Neg
[1]; S. aureus ATCC BAA 1026
  FOX screen: POS
[1]; Sa1 (MRSA)
  FOX screen: POS
[1]; Sa2 (MRSA)
  FOX screen: POS
[1]; Sa3 (MRSA)
  FOX screen: POS
[1]; Sa6 (MRSA)
  FOX screen: POS
[1]; Sa7 (MRSA)
  FOX screen: POS
[1]; Sa9 (MRSA)
  FOX screen: POS
[1]; Sa11 (MRSA)
  FOX screen: POS
[1]; Sa12 (MRSA)
  FOX screen: POS
[1]; Sa14 (MRSA)
  FOX screen: POS
[1]; Sa15 (MRSA)
  FOX screen: POS
[1]; Sa16 (MRSA)
  FOX screen: POS
[1]; Sa17 (MRSA)
  FOX screen: POS
[1]; Sa18 (MRSA)
  FOX screen: POS
[1]; Sa19 (MRSA)
  FOX screen: POS
[1]; Sa20 (MRSA)
  FOX screen: POS
[1]; Sa21 (MRSA)
  FOX screen: POS
[1]; Sa22 (MRSA)
  FOX screen: POS
[1]; Sa23 (MRSA)
  FOX screen: POS
[2]; [5]
  FOX screen: POS
[2]; [6]
  FOX screen: POS
[3]; Sh1 (Staphylococcus hominis)
  FOX screen: POS
[3]; Sh2 (Staphylococcus hominis)
  FOX screen: POS
[3]; Sh3 (Staphylococcus hominis)
  FOX screen: POS
[4]; [7]
  FOX screen: POS
[4]; [8]
  FOX screen: POS
[4]; [9]
  FOX screen: POS
[4]; [10]
  FOX screen: POS
[4]; [11]
  FOX screen: POS

## CN[C@H](CC(C)C)C(=O)N[C@H]1C(=O)N[C@@H](CC(N)=O)C(=O)N[C@H]2C(=O)N[C@H]3C(=O)N[C@H](C(=O)N[C@H](C(=O)O)c4cc(O)cc(O)c4-c4cc3ccc4O)[C@H](O)c3ccc(c(Cl)c3)Oc3cc2cc(c3O[C@@H]2O[C@H](CO)[C@@H](O)[C@H](O)[C@H]2O[C@H]2C[C@](C)(N)[C@H](O)[C@H](C)O2)Oc2ccc(cc2Cl)[C@H]1O [VAN, vancomycin]
[1]; S. aureus ATCC 25923
  Antibiotic susceptibility: S
[1]; S. aureus ATCC 29213
  Antibiotic susceptibility: S
[1]; S. aureus ATCC BAA 976
  Antibiotic susceptibility: S
[1]; S. aureus ATCC BAA 977
  Antibiotic susceptibility: S
[1]; S. aureus ATCC BAA 1026
  Antibiotic susceptibility: S
[1]; Sa1 (MRSA)
  Antibiotic susceptibility: S
[1]; Sa2 (MRSA)
  Antibiotic susceptibility: S
[1]; Sa3 (MRSA)
  Antibiotic susceptibility: S
[1]; Sa5 (MRSA)
  Antibiotic susceptibility: S
[1]; Sa6 (MRSA)
  Antibiotic susceptibility: S
[1]; Sa7 (MRSA)
  Antibiotic susceptibility: S
[1]; Sa8 (MRSA)
  Antibiotic susceptibility: S
[1]; Sa9 (MRSA)
  Antibiotic susceptibility: S
[1]; Sa10 (MRSA)
  Antibiotic susceptibility: S
[1]; Sa11 (MRSA)
  Antibiotic susceptibility: S
[1]; Sa12 (MRSA)
  Antibiotic susceptibility: S
[1]; Sa14 (MRSA)
  Antibiotic susceptibility: S
[1]; Sa15 (MRSA)
  Antibiotic susceptibility: S
[1]; Sa16 (MRSA)
  Antibiotic susceptibility: S
[1]; Sa17 (MRSA)
  Antibiotic susceptibility: S
[1]; Sa18 (MRSA)
  Antibiotic susceptibility: S
[1]; Sa19 (MRSA)
  Antibiotic susceptibility: S
[1]; Sa20 (MRSA)
  Antibiotic susceptibility: S
[1]; Sa21 (MRSA)
  Antibiotic susceptibility: S
[1]; Sa22 (MRSA)
  Antibiotic susceptibility: S
[1]; Sa23 (MRSA)
  Antibiotic susceptibility: S
[2]; [5]
  Antibiotic susceptibility: S
[2]; [6]
  Antibiotic susceptibility: S
[3]; Sh1 (Staphylococcus hominis)
  Antibiotic susceptibility: S
[3]; Sh2 (Staphylococcus hominis)
  Antibiotic susceptibility: S
[3]; Sh3 (Staphylococcus hominis)
  Antibiotic susceptibility: S
[4]; [7]
  Antibiotic susceptibility: S
[4]; [8]
  Antibiotic susceptibility: S
[4]; [9]
  Antibiotic susceptibility: S
[4]; [10]
  Antibiotic susceptibility: S
[4]; [11]
  Antibiotic susceptibility: S

## CC(=O)NC[C@H]1CN(c2ccc(N3CCOCC3)c(F)c2)C(=O)O1 [LZD, linezolid]
[1]; S. aureus ATCC 25923
  Antibiotic susceptibility: S
[1]; S. aureus ATCC 29213
  Antibiotic susceptibility: S
[1]; S. aureus ATCC BAA 976
  Antibiotic susceptibility: S
[1]; S. aureus ATCC BAA 977
  Antibiotic susceptibility: S
[1]; S. aureus ATCC BAA 1026
  Antibiotic susceptibility: S
[1]; Sa1 (MRSA)
  Antibiotic susceptibility: S
[1]; Sa2 (MRSA)
  Antibiotic susceptibility: S
[1]; Sa3 (MRSA)
  Antibiotic susceptibility: S
[1]; Sa5 (MRSA)
  Antibiotic susceptibility: S
[1]; Sa6 (MRSA)
  Antibiotic susceptibility: S
[1]; Sa7 (MRSA)
  Antibiotic susceptibility: S
[1]; Sa8 (MRSA)
  Antibiotic susceptibility: S
[1]; Sa9 (MRSA)
  Antibiotic susceptibility: S
[1]; Sa10 (MRSA)
  Antibiotic susceptibility: S
[1]; Sa11 (MRSA)
  Antibiotic susceptibility: S
[1]; Sa12 (MRSA)
  Antibiotic susceptibility: S
[1]; Sa14 (MRSA)
  Antibiotic susceptibility: S
[1]; Sa15 (MRSA)
  Antibiotic susceptibility: S
[1]; Sa16 (MRSA)
  Antibiotic susceptibility: S
[1]; Sa17 (MRSA)
  Antibiotic susceptibility: S
[1]; Sa18 (MRSA)
  Antibiotic susceptibility: S
[1]; Sa19 (MRSA)
  Antibiotic susceptibility: S
[1]; Sa20 (MRSA)
  Antibiotic susceptibility: S
[1]; Sa21 (MRSA)
  Antibiotic susceptibility: S
[1]; Sa22 (MRSA)
  Antibiotic susceptibility: S
[1]; Sa23 (MRSA)
  Antibiotic susceptibility: S
[2]; [5]
  Antibiotic susceptibility: S
[2]; [6]
  Antibiotic susceptibility: S
[3]; Sh1 (Staphylococcus hominis)
  Antibiotic susceptibility: S
[3]; Sh2 (Staphylococcus hominis)
  Antibiotic susceptibility: S
[3]; Sh3 (Staphylococcus hominis)
  Antibiotic susceptibility: S
[4]; [7]
  Antibiotic susceptibility: S
[4]; [8]
  Antibiotic susceptibility: S
[4]; [9]
  Antibiotic susceptibility: S
[4]; [10]
  Antibiotic susceptibility: S
[4]; [11]
  Antibiotic susceptibility: S

## COc1c(N2C[C@@H]3CCCN[C@@H]3C2)c(F)cc2c(=O)c(C(=O)O)cn(C3CC3)c12 [MXF, moxifloxacin]
[1]; S. aureus ATCC 25923
  Antibiotic susceptibility: S
[1]; S. aureus ATCC 29213
  Antibiotic susceptibility: S
[1]; S. aureus ATCC BAA 976
  Antibiotic susceptibility: S
[1]; S. aureus ATCC BAA 977
  Antibiotic susceptibility: S
[1]; S. aureus ATCC BAA 1026
  Antibiotic susceptibility: I
[1]; Sa1 (MRSA)
  Antibiotic susceptibility: R
[1]; Sa2 (MRSA)
  Antibiotic susceptibility: I
[1]; Sa3 (MRSA)
  Antibiotic susceptibility: I
[1]; Sa5 (MRSA)
  Antibiotic susceptibility: R
[1]; Sa6 (MRSA)
  Antibiotic susceptibility: R
[1]; Sa7 (MRSA)
  Antibiotic susceptibility: S
[1]; Sa8 (MRSA)
  Antibiotic susceptibility: R
[1]; Sa9 (MRSA)
  Antibiotic susceptibility: R
[1]; Sa10 (MRSA)
  Antibiotic susceptibility: R
[1]; Sa11 (MRSA)
  Antibiotic susceptibility: R
[1]; Sa12 (MRSA)
  Antibiotic susceptibility: I
[1]; Sa14 (MRSA)
  Antibiotic susceptibility: I
[1]; Sa15 (MRSA)
  Antibiotic susceptibility: R
[1]; Sa16 (MRSA)
  Antibiotic susceptibility: I
[1]; Sa17 (MRSA)
  Antibiotic susceptibility: R
[1]; Sa18 (MRSA)
  Antibiotic susceptibility: I
[1]; Sa19 (MRSA)
  Antibiotic susceptibility: S
[1]; Sa20 (MRSA)
  Antibiotic susceptibility: I
[1]; Sa21 (MRSA)
  Antibiotic susceptibility: S
[1]; Sa22 (MRSA)
  Antibiotic susceptibility: S
[1]; Sa23 (MRSA)
  Antibiotic susceptibility: S
[2]; [5]
  Antibiotic susceptibility: S
[2]; [6]
  Antibiotic susceptibility: R
[3]; Sh1 (Staphylococcus hominis)
  Antibiotic susceptibility: R
[3]; Sh2 (Staphylococcus hominis)
  Antibiotic susceptibility: S
[3]; Sh3 (Staphylococcus hominis)
  Antibiotic susceptibility: S
[4]; [7]
  Antibiotic susceptibility: R
[4]; [8]
  Antibiotic susceptibility: S
[4]; [9]
  Antibiotic susceptibility: R
[4]; [10]
  Antibiotic susceptibility: R
[4]; [11]
  Antibiotic susceptibility: R

Source: US12502362B2, “Inhibitors of nucleotidyltransferase superfamily enzymes as antibiotics” (priority 2017, dated 2025)
